According to the NIST ThermoML archive (doi:10.1021/je800609u):

How the values were obtained:
[1] = osmotic coefficient (dimensionless); mn = molality of the nth substance listed, in mol/kg; conditions: Liquid, vapor pressure osmometery method
[2] = refractive index (Na D-line) (dimensionless); mn = molality of the nth substance listed, in mol/kg; conditions: 101 kPa, Liquid

CCCCn1cc[n+](C)c1.[Cl-] [1-butyl-3-methylimidazolium chloride] + O
Conditions	osmotic coefficient, 298.15 K	osmotic coefficient, 308.15 K	osmotic coefficient, 318.15 K	osmotic coefficient, 328.15 K	refractive index, 298.15 K	refractive index, 308.15 K	refractive index, 318.15 K	refractive index, 328.15 K
[1], m1 = 0.0105	1	0.948	0.958	0.978	–	–	–	–
[1], m1 = 0.023	0.958	0.929	0.932	0.939	–	–	–	–
[1], m1 = 0.0289	0.932	0.924	0.935	0.938	–	–	–	–
[1], m1 = 0.0398	0.892	0.911	0.916	0.921	–	–	–	–
[1], m1 = 0.0621	0.855	0.866	0.881	0.906	–	–	–	–
[1], m1 = 0.0803	0.833	0.861	0.869	0.873	–	–	–	–
[1], m1 = 0.0986	0.827	0.864	0.865	0.867	–	–	–	–
[1], m1 = 0.1413	0.814	0.844	0.857	0.862	–	–	–	–
[1], m1 = 0.1816	0.789	0.817	0.823	0.832	–	–	–	–
[1], m1 = 0.2223	0.779	0.794	0.807	0.822	–	–	–	–
[1], m1 = 0.2764	0.772	0.79	0.797	0.81	–	–	–	–
[1], m1 = 0.3386	0.768	0.779	0.798	0.803	–	–	–	–
[1], m1 = 0.371	0.764	0.775	0.784	0.79	–	–	–	–
[1], m1 = 0.4863	0.735	0.747	0.762	0.775	–	–	–	–
[1], m1 = 0.599	0.718	0.738	0.75	0.759	–	–	–	–
[1], m1 = 0.7152	0.716	0.731	0.748	0.755	–	–	–	–
[1], m1 = 0.9754	0.699	0.709	0.723	0.733	–	–	–	–
[1], m1 = 1.492	0.686	0.692	0.713	0.719	–	–	–	–
[1], m1 = 2	0.686	0.694	0.706	0.721	–	–	–	–
[1], m1 = 2.962	0.711	0.721	0.729	0.744	–	–	–	–
[2], m1 = 0.0105	–	–	–	–	1.333	1.3317	1.3292	1.3273
[2], m1 = 0.023	–	–	–	–	1.3334	1.332	1.3295	1.3275
[2], m1 = 0.0289	–	–	–	–	1.3335	1.3323	1.3296	1.3277
[2], m1 = 0.0398	–	–	–	–	1.334	1.3326	1.33	1.328
[2], m1 = 0.0621	–	–	–	–	1.3343	1.333	1.3305	1.3288
[2], m1 = 0.0803	–	–	–	–	1.3349	1.3336	1.331	1.329
[2], m1 = 0.0986	–	–	–	–	1.3354	1.3341	1.3312	1.3297
[2], m1 = 0.1413	–	–	–	–	1.3366	1.3351	1.3325	1.3309
[2], m1 = 0.1816	–	–	–	–	1.3377	1.3363	1.3338	1.3319
[2], m1 = 0.2223	–	–	–	–	1.3388	1.3373	1.3346	1.3331
[2], m1 = 0.2764	–	–	–	–	1.3404	1.3389	1.3362	1.3343
[2], m1 = 0.3386	–	–	–	–	1.3419	1.3403	1.3377	1.3358
[2], m1 = 0.371	–	–	–	–	1.3428	1.3416	1.3387	1.3369
[2], m1 = 0.4863	–	–	–	–	1.3457	1.3441	1.3415	1.3398
[2], m1 = 0.599	–	–	–	–	1.3484	1.3469	1.3442	1.3422
[2], m1 = 0.7152	–	–	–	–	1.3512	1.3497	1.3467	1.3449
[2], m1 = 0.9754	–	–	–	–	1.3571	1.3562	1.3528	1.3508
[2], m1 = 1.492	–	–	–	–	1.3679	1.3661	1.3631	1.3611
[2], m1 = 2	–	–	–	–	1.3774	1.3754	1.3723	1.3703
[2], m1 = 2.962	–	–	–	–	1.3923	1.3904	1.3872	1.3849

CCCCn1cc[n+](C)c1.[I-] [1-butyl-3-methylimidazolium iodide] + O
Conditions	osmotic coefficient, 298.15 K	osmotic coefficient, 308.15 K	osmotic coefficient, 318.15 K	osmotic coefficient, 328.15 K	refractive index, 298.15 K	refractive index, 308.15 K	refractive index, 318.15 K	refractive index, 328.15 K
[1], m1 = 0.0133	0.833	0.856	0.899	0.91	–	–	–	–
[1], m1 = 0.0293	0.821	0.843	0.888	0.889	–	–	–	–
[1], m1 = 0.0442	0.792	0.821	0.88	0.885	–	–	–	–
[1], m1 = 0.0505	0.784	0.814	0.869	0.878	–	–	–	–
[1], m1 = 0.0786	0.766	0.788	0.845	0.861	–	–	–	–
[1], m1 = 0.0995	0.761	0.78	0.819	0.833	–	–	–	–
[1], m1 = 0.1307	0.751	0.765	0.782	0.807	–	–	–	–
[1], m1 = 0.1782	0.711	0.734	0.758	0.778	–	–	–	–
[1], m1 = 0.216	0.697	0.714	0.74	0.768	–	–	–	–
[1], m1 = 0.3257	0.644	0.662	0.706	0.715	–	–	–	–
[1], m1 = 0.4065	0.613	0.645	0.682	0.69	–	–	–	–
[1], m1 = 0.5184	0.596	0.626	0.644	0.662	–	–	–	–
[1], m1 = 0.6452	0.564	0.581	0.61	0.619	–	–	–	–
[1], m1 = 0.7509	0.554	0.566	0.574	0.586	–	–	–	–
[1], m1 = 0.8786	0.528	0.553	0.558	0.569	–	–	–	–
[1], m1 = 1.154	0.47	0.501	0.521	0.528	–	–	–	–
[1], m1 = 1.837	0.405	0.413	0.429	0.45	–	–	–	–
[1], m1 = 2.589	0.362	0.38	0.387	0.408	–	–	–	–
[2], m1 = 0.0133	–	–	–	–	1.3331	1.3321	1.3305	1.3285
[2], m1 = 0.0293	–	–	–	–	1.3336	1.3325	1.331	1.3289
[2], m1 = 0.0442	–	–	–	–	1.3343	1.333	1.3316	1.3293
[2], m1 = 0.0505	–	–	–	–	1.3346	1.3334	1.3317	1.3298
[2], m1 = 0.0786	–	–	–	–	1.3356	1.3344	1.3328	1.331
[2], m1 = 0.0995	–	–	–	–	1.3365	1.3353	1.3336	1.3315
[2], m1 = 0.1307	–	–	–	–	1.3376	1.3363	1.3347	1.3329
[2], m1 = 0.1782	–	–	–	–	1.3395	1.3381	1.3364	1.3347
[2], m1 = 0.216	–	–	–	–	1.341	1.3397	1.338	1.3359
[2], m1 = 0.3257	–	–	–	–	1.3449	1.3435	1.3418	1.3404
[2], m1 = 0.4065	–	–	–	–	1.3478	1.3467	1.3447	1.3433
[2], m1 = 0.5184	–	–	–	–	1.3519	1.3503	1.3487	1.3464
[2], m1 = 0.6452	–	–	–	–	1.356	1.3548	1.3529	1.3507
[2], m1 = 0.7509	–	–	–	–	1.3595	1.358	1.3561	1.3541
[2], m1 = 0.8786	–	–	–	–	1.3635	1.362	1.36	1.3578
[2], m1 = 1.154	–	–	–	–	1.3714	1.3701	1.368	1.3657
[2], m1 = 1.837	–	–	–	–	1.3893	1.3876	1.3853	1.3831
[2], m1 = 2.589	–	–	–	–	1.4054	1.4035	1.4012	1.3986
